# According to PMC11343806 (Journal of Biological Inorganic Chemistry, 2024):
# Legend:
# [1] = target: T1, bacterial TrxR from E. coli (Escherichia coli, UniProt P0A9P4); test: Inhibition of bacterial TrxR (E. coli), DTNB/5-TNB assay; type: biochemical; settings: purified enzyme, 75 min incubation at 25 °C; means and standard deviations
# T1 construct: purchased Sigma-Aldrich
# Method: The TrxR (E.coli) inhibition assay was performed according to a previously published procedure. It is partly based on the procedure developed by Lu et al.[35] and detects the formation of 5-TNB (5-thionitrobenzoic acid). Solutions of E. coli TrxR (35.4 U/mL) and of its substrate thioredoxin (Trx) E. coli (156 µg/mL) (both purchased from Sigma-Aldrich and diluted with distilled water) and fresh stock solutions of the test compounds (in DMF) were prepared (1c was administered as suspension). TE buffer (Tris–HCl 50 mM, EDTA 1 mM, pH 7.5) containing graded concentrations of the respective compounds (20 µL) or buffer without compounds (20 µL, as control) were mixed with TrxR solution (10 µL), Trx solution (10 µL), and a solution of NADPH (200 µM) in TE buffer (100 µL) in a well on a 96-well plate. As blank solution, 200 µM NADPH in TE buffer (100 µL) mixed with a DMF/buffer mixture (40 µL) was used (final concentrations of DMF: 0.5% v/v). The solutions on the 96-well plate were incubated for 75 min at 25 °C with moderate shaking. A volume of 100 µL of a reaction mixture (TE buffer containing 200 µM NADPH and 5 mM DTNB) was added to each well to initiate the reaction. After thorough mixing, the formation of 5-TNB was monitored by a microplate reader at 405 nm in 35 s intervals (10 measurements). The values were corrected by subtraction of the values for the blank solution. The increase in concentration of 5-TNB followed a linear trend (r^2 ≥ 0.990) and the enzymatic activities were calculated as the gradients (increase in absorbance per second) thereof. Absence of interference with the assay components was confirmed by a negative control experiment for each test compound. The highest test compound concentration was used and the enzyme solution was replaced by TE buffer for this purpose. The IC50 values were calculated as the concentration of the compound decreasing the enzymatic activity of the positive control by 50% and are presented as the means and standard deviations of independent repeated experiments.
# [2] = system: Vero E6 non-tumorigenic epithelial kidney cells; test: Antiproliferative assay (crystal violet); type: cell-based, African green monkey; settings: 72 h exposure; ± standard deviation, n = 2–4; read-out: IC50, antiproliferative effects, Vero E6
# Method: (§1) The antiproliferative effects were determined according to a previously published procedure. A volume of 100 µL of cell suspension of A549 cells, MDA-MB-231, HT-29 or Vero E6 cells was transferred into the wells of a 96-well plates and incubated at 37 °C under 5% CO2 for 72 h. […] The results were calculated as the mean values of three independent experiments, unless stated otherwise.
# A-549 lung cancer cells = test: Antiproliferative assay (crystal violet); type: cell-based, human; settings: 72 h exposure; ± standard deviation, n = 2–4; read-out: IC50, antiproliferative effects, A-549
# Method: as §1
# [3] = system: MDA-MB-231 breast cancer cells; test: Antiproliferative assay (crystal violet); type: cell-based, human; settings: 96 h exposure; ± standard deviation, n = 2–4; read-out: IC50, antiproliferative effects, MDA-MB-231
# Method: as §1
# [4] = system: HT-29 colon carcinoma cells; test: Antiproliferative assay (crystal violet); type: cell-based, human; settings: 72 h exposure; ± standard deviation, n = 2–4; read-out: IC50, antiproliferative effects, HT-29
# Method: as §1
# [5] = system: C. difficile strain 1296^ T (DSM 1296), metronidazole-sensitive; test: Antibacterial effects against C. difficile (anaerobic growth curves, OD600); type: cell-based, Clostridioides difficile; settings: strain 1296T
# Method: (§2) (provided by Ulrich Nübel, DSMZ Braunschweig) were maintained in prereduced BHIS medium (37 g/L BHI, oxoid, 5% yeast extract, 1% L-cysteine) in a Coy-Laboratories anaerobic chamber (85% N2, 10% CO2, 5% H2) at 37 °C. Freshly prepared cultures were incubated until the exponential growth phase (OD600 = 0.2–0.4) and were adjusted to 1 × 10^6 cfu/mL before inoculation. The test compounds were dissolved in DMSO and by two-fold dilution steps concentrations in the range from 200 µM to 0.39 µM in BIHS medium were obtained. The solutions (100µL) were added to 100 µL of a diluted C. difficile culture (total volume: 200 µL in BIHS, 5 × 10^5 C. difficile, 100–0.195 µM test compound per well). The OD600-values over a period of 48 h were measured with a LogPhase 600 4-plate reader (BioTek) and compared with blank BHIS.
# [6] = system: C. difficile strain VPI10463 (ATCC 43255), metronidazole-sensitive; test: as above; type: cell-based, Clostridioides difficile
# Method: as §2
# [7] = system: C. difficile strain IB136 (NCTC 14385), metronidazole-resistant; test: as above; type: cell-based, Clostridioides difficile
# Method: as §2
# [8] = system: aerobic Gram-positive and Gram-negative pathogenic bacteria strains; test: MIC, summary over the panel of aerobic bacteria; type: cell-based
# Method: (§3) The following strains were used and maintained at 37 °C in MHB (21 g/L Müller Hinton, pH 7.4) or TSY (30 g/L trypticase soy broth, 3 g/L yeast extract, pH 7.0–7.2) medium. Acinetobacter baumannii (DSM 30007, ATCC 19606) in MHB, Escherichia coli (DSM1116, ATCC 9637) in TSY, Klebsiella pneumoniae (DSM 11678, ATCC33495) in MHB, Pseudomonas aeruginosa PA7 (DSM 24068) in MHB, Enterococcus faecium (DSM 20477, ATCC 19434) in TSY, Staphylococcus aureus MRSA (DSM 11822, ICB 25701) in TSY). Minimum inhibitory concentration (MIC) values were determined following a standardized protocol in broth dilution assays. […] Starting inocula of 2–8 × 10^5 colony-forming units per ml in MHB or TSY media at 37 °C were used, and serial dilutions were carried out in 384-well microtiter plates in duplicate. […] The MIC values for the tested compounds were determined in three independent experiments by a curve-fitting procedure using the GraphPad Prism software (Graphpad Software, Inc.).
# [9] = system: Acinetobacter baumannii (DSM 30007, ATCC 19606); test: MIC broth dilution, aerobic bacteria; type: cell-based; settings: 20 h at 37 °C, ± standard error, n ≥ 3
# Method: as §3
# [10] = system: Enterococcus faecium (DSM 20477, ATCC 19434); test: MIC broth dilution, aerobic bacteria; type: cell-based; settings: 20 h at 37 °C, ± standard error, n ≥ 3
# Method: as §3
# [11] = system: Klebsiella pneumoniae (DSM 11678, ATCC33495); test: MIC broth dilution, aerobic bacteria; type: cell-based; settings: 20 h at 37 °C, ± standard error, n ≥ 3, read-out: MIC, K. pneumoniae
# Method: as §3
# [12] = system: Pseudomonas aeruginosa PA7 (DSM 24068); test: MIC broth dilution, aerobic bacteria; type: cell-based; settings: 20 h at 37 °C, ± standard error, n ≥ 3, read-out: MIC, P.aeruginosa
# Method: as §3
# [13] = system: Staphylococcus aureus MRSA (DSM 11822, ICB 25701); test: MIC broth dilution, aerobic bacteria; type: cell-based; settings: 20 h at 37 °C, ± standard error, n ≥ 3
# Method: as §3
# [14] = system: A-549, HT-29, MDA-MB-231 and Vero E6 cells; test: Antiproliferative assay, summary over all cell lines; type: cell-based; settings: all four cell lines; for 2c except MDA-MB-231; read-out: IC50 values, antiproliferative effects, all cell lines
# Method: as §1
# T1 sequence (P0A9P4 whole entry): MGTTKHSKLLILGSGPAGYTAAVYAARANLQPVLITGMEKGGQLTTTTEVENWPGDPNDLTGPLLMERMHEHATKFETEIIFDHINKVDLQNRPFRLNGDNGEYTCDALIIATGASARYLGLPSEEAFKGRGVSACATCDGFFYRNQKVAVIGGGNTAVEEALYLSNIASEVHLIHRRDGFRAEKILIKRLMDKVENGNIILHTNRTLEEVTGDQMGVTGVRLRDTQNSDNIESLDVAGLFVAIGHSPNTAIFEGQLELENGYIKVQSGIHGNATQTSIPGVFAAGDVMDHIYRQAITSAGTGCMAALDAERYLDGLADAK
structure (smiles),measurement,setting,value
"Cc1ncc([N+](=O)[O-])n1CCOC(=O)Cn1[c](=[Au][Cl])n(C)c2ccccc21 [Compound 2c, Chlorido-(1-methyl-3-(2-(2-(2-methyl-5-nitroimidazol-1-yl)ethoxy)-2-oxoethyl)-benzimidazol-2-yliden)gold(I)]",IC50,[1],0.175 ± 0.017 µM
same,IC50,[2],> 95 µM
same,IC50,A-549 lung cancer cells,81.9 ± 2.8 µM
same,IC50,[3],31.8 ± 4.1 µM
same,IC50,[4],80.7 ± 5.9 µM
same,solubility in organic solvents,Solubility observations,soluble in most organic solvents
same,antibacterial effect at 6.25 µM,"[5]; 6.25 µM, recovery of growth after extended exposure",effective inhibitors
same,concentration leading to a complete block of bacterial growth without recovery,"[5]; up to 100 µM, 48 h",blocked bacterial growth at the same concentration
same,antibacterial effect at 6.25 µM,"[6]; strain VPI10463, 6.25 µM, recovery of growth after extended exposure",effective inhibitors
same,concentration leading to a complete block of bacterial growth without recovery,"[6]; strain VPI10463, up to 100 µM, 48 h",blocked bacterial growth at the same concentration
same,concentration leading to a complete block of bacterial growth without recovery,"[7]; metronidazole-resistant strain IB136, up to 100 µM, 48 h",blocked bacterial growth at the same concentration
same,antibacterial effect at 6.25 µM,"[7]; resistant strain IB136, 6.25 µM",strong effects with recovery of bacterial proliferation
same,MIC values against Gram-positive strains,"[8]; MRSA and E. faecium, except for 1c in MRSA",37 to 44 µM
same,activity against Gram-negative strains (in words),[8]; aerobic conditions,inactive
same,MIC,[9],> 111.2 µM
same,"MIC, E. faecium",[10],43.3 ± 16.0 µM
same,MIC,[11],> 111.2 µM
same,MIC,[12],> 111.2 µM
same,"MIC, MRSA",[13],37.1 ± 16.0 µM
same,IC50,[14],> 60 µM
